In one test the target is T1, human GLP-1R receptor (Homo sapiens, UniProt P43220, L260F).
T1 construct: expressed in transfected cells; host or cells: CHO-K1 (ATCC CCL-61)
Briefly: CHOK1 GLP-1R cAMP Assay. The class given is cell-based. Particulars: CHO-K1 cell line stably expressing human GLP-1R; HTRF cAMP detection. As to the method:
A cell line stably expressing the human GLP-1R receptor (NM_002062.5, including the naturally-occurring variant Leu260Phe) in a CHO-K1 (ATCC® CCL-61™) was used for assay.
GLP-1 Receptor mediated agonist activity was determined in a cell based assay measuring cAMP levels in cells using Homogeneous Time-Resolved Fluorescence (HTRF) cAMP detection kit (CisBio catalog #62AM4PEC, cAMP Gs Dynamic range kit). The cAMP detection method is based on a competitive immunoassay, in which cAMP produced by the cells and cAMP labeled with the dye d2 compete for binding to a Europium-Cryptate-labeled anti-cAMP antibody. The specific HTRF signal is inversely proportional to the concentration of cAMP.
Compounds were added to individual well in 384 well-assay plates (Greiner #784076) using an Echo (LabCyte) dispenser from 10 mM stocks. Varying concentration of compounds were added to wells, and dimethyl sulfoxide was used to normalize each well to a volume of 100 nanoliter. A dose response curve of GLP1(7-36)NH2 (Bachem H-6795) was included in each run. 5 μL of cAMP concentration response standards are applied in specified wells in the assay plates.
Cryo-preserved cells are thawed and resuspended in assay buffer pre-heated to 37° C. (20 mM 2-[4-(2-hydroxyethyl)piperazin-1-yl]ethanesulfonic acid (HEPES) pH 7.4, lx Hank's Balanced Salt Solution (HBSS, Life Technologies #14065) supplemented with 0.1% (w/v) bovine serum albumin (Sigma, A-7030)). Cells were centrifuged at 250*g for 5 min at room temperature, and resuspend in room tempered assay buffer to a final density of 0.16*10^6 cell/mL, to deliver 800 cells/well. 5 μL of assay buffer with 1 mM 3-isobutyl-1-methylxanthin (IBMX; Sigma cat I-7018) was dispensed per well in assay plates using a multidrop combi (Thermo Scientific) subsequently 5 μL of cell suspension was distributed to relevant wells in the assay using a multidrop dispenser. Assay plates were incubated 20 min at room temperature.
Detection reagents, Europium-Cryptate-labeled anti-cAMP antibody and cAMP labeled with the dye d2, are diluted in lysis buffer, provided by the manufacturer. 5 μL of each detection reagent is supplemented to each assay well using a multidrop dispenser. Assay plates are incubated in the dark for at least one hour. The HTRF signal is measured using the HTRF module (excitation: 337 nm, emission A: 665 nm and emission B: 620 nm) in Pherastar FSX (BMG Labtech).
Raw data were converted to pM cAMP using the cAMP standard curve included in each run. Converted data were further analyzed in Genedata Screener (Genedata) and EC50 determinations were made from agonist dose-response curves analyzed with a curve fitting program using a 4-parameter logistic dose response equation (Equation y=A+((B−A)/1+((C/x)^D))) where A is no stimulation, B is full stimulation, C is the EC50 and D is the Hill slope). The percent effect was determined relative to a saturating concentration of a full GLP-1R agonist (GLP1(7-36)NH2 has 100% effect in this assay setup).
For orientation: Time-resolved FRET reads energy transfer from a long-lived donor to a nearby acceptor.

The target of test [1] is T2, endogenous human glucagon-like peptide 1 receptor (GLP-1R) (Homo sapiens, UniProt P43220).
T2 construct: endogenous human glucagon-like peptide 1 receptor (GLP-1R) in a pancreatic insulinoma cell line; host or cells: EndoC-βH1 human pancreatic β cell line
T2 sequence (P43220 24-463): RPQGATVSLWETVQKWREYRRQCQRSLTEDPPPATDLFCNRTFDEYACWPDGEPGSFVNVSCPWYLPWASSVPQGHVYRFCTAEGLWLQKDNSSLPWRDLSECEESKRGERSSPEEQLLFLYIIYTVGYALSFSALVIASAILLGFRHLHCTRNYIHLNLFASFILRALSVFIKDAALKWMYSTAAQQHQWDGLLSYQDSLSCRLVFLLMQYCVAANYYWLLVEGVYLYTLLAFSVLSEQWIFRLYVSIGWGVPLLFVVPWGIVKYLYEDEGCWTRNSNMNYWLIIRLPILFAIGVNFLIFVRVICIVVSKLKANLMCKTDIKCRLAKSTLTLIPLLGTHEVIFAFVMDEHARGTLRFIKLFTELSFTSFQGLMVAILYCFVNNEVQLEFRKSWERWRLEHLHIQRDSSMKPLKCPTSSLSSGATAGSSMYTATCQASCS
Briefly: EndoC cAMP Accumulation Assay. The settings on record: EndoC-βH1 human pancreatic β cell line; HTRF cAMP assay. The class given is cell-based. An excerpt:
EndoC cAMP Accumulation Assay
A HTRF (Homogeneous Time-Resolved Fluorescence) cAMP assay (cAMP Gs dynamic kit; CisoBio Cat #62AM4PEJ) was used to identify agonists of the endogenous human glucagon-like peptide 1 receptor (GLP-1R) in a pancreatic insulinoma cell line (EndoC-βH1). […] EndoC-βH1 cells have detectable GLP-1R mRNA as detected by qPCR^1. […] The EndoC-βH1 cell line is a valid model of human beta cells and applicable for screenings to identify novel drug target candidates (Mol. Metab., 2018, 8, 144-157). CisBio HTRF cAMP kits are based on a competitive immunoassay using cryptate-labelled anti-cAMP antibody and d2-labeled cAMP. The detection kit is intended for the direct quantitative determination of cAMP. The specific signal (i.e. energy transfer) is inversely proportional to the concentration of cAMP in the standard or sample. Test compounds (10 mM in DMSO) were diluted into assay buffer (HBSS (Sigma #H8264) supplemented with 25 mM HEPES (Gibco #15630, pH 7.4), 0.1% BSA (Sigma #A3059) and 0.5 mM IBMX (Sigma #I7018) included fresh on the day of the assay) into 96 well U-bottom plates (Greiner #650201). Diluted compounds were transferred to ECHO source PP plates (Labcyte #P-05525) and dose response curves were dispensed acoustically using ECHO 550 into black shallow-well u-bottom 384-well HTRF Assay Plates (Corning 4514).
Cryovials of EndoC-H1 (supplied at 1×10e^7 cells/vial) were used directly for screening. The cryovials and were removed from LN2 and thawed rapidly in a 37° C. water bath. The cells were resuspended in assay buffer and centrifuged at 300 g for 5 min. Cells were resuspended in assay buffer at the appropriate concentration, typically at 12e5 cells per mL (3000 cells per well, dependent on cell batch) and 2.5 μL diluted cells were added to all wells of destination plate by Multidrop combi reagent dispenser (Thermofisher). The plates were incubated at room temperature for 30 min. The assay was stopped by adding 2.5 μL anti-cAMP cryptate solution to all wells and 2.5 μL cAMP-d2 solution (both diluted 1:20 in lysis buffer) to columns 1-22 by Combi drop. A volume of 2.5 μL cAMP-d2 solution was added to wells E23 to P24 and 2.5 μL lysis buffer added to wells A23 to D24 by multichannel pipette. The plates were incubated at room temperature for 1 hr and read on an Envision plate reader using excitation wavelength of 320 nm and emission of 590 nm and 660 nm.
Raw data from Envision is converted to % DeltaF according to the manufacturer's instructions. Dose response curves are analysed via 4-Parameter Logistical Analysis and assay plate Z′ values obtained. Samples are graphed as percentage (%) activation plots compared to GIP (1-42, Bachem H-5645) with assay window defined by negative control as basal cell cAMP levels and positive control are defined by maximum GIP (82.5 nM) signal. GLP1 (7-36 amide, Bachem H-6795) dose response curve was included on all plates.

T1 sequence (P43220 24-463 L260F): as the sequence (P43220 24-463) above, with L237F counted along it

By EC50 is commonly meant the concentration that produces a half-maximal response. Higher therefore signals a less potent agent. On to `C[C@]1(c2ccc(Cl)cn2)Oc2cccc(N3CCN(Cc4nc5ccc(C(=O)O)cc5n4C[C@@H]4CCO4)[C@H]4COC[C@H]43)c2O1` (relative stereo) [Example 5a, 2-((4aR*,7aS*)-4-((R*)-2-(5-Chloropyridin-2-yl)-2-methylbenzo[d][1,3]dioxol-4-yl)hexahydrofuro[3,4-b]pyrazin-1(2H)-yl)methyl)-1-(((S)-oxetan-2-yl)methyl)-1H-benzo[d]imidazole-6-carboxylic acid], for which the values for the EC50 (on human GLP-1R receptor; in test [1]) were 180 nM and 1300 nM, respectively.
In the case of `C[C@@]1(c2ccc(Cl)cc2F)Oc2cccc(N3CCN(Cc4nc5c(F)cc(C(=O)O)cc5n4Cc4cccnc4)[C@@H]4COC[C@@H]43)c2O1` (relative stereo) [Example 13c, rel-2-(((4aR,7aS)-4-((R)-2-(4-Chloro-2-fluorophenyl)-2-methylbenzo[d][1,3]dioxol-4-yl)hexahydrofuro[3,4-b]pyrazin-1(2H)-yl)methyl)-4-fluoro-1-(pyridin-3-ylmethyl)-1H-benzo[d]imidazole-6-carboxylic acid], the concentration giving a half-maximal response (EC50) at human GLP-1R receptor came to 730 nM; in test [1], 340 nM.
On the same counts, the results for `C[C@@]1(c2ccc(Cl)cc2F)Oc2cccc(N3CCN(Cc4nc5c(Cl)cc(C(=O)O)cc5n4C[C@@H]4CCO4)[C@@H]4COC[C@@H]43)c2O1` (relative stereo) [Example 15a, 4-Chloro-2-(((4aR*,7aS*)-4-((R*)-2-(4-chloro-2-fluorophenyl)-2-methylbenzo[d][1,3]dioxol-4-yl)hexahydrofuro[3,4-b]pyrazin-1(2H)-yl)methyl)-1-(((S)-oxetan-2-yl)methyl)-1H-benzo[d]imidazole-6-carboxylic acid] are 1.1 nM and 1.9 nM.
With `COc1cc(C(=O)O)cc2c1nc(CN1CCN(c3cccc4c3OC(C)(c3ccc(Cl)cc3F)O4)[C@@H]3COC[C@@H]31)n2C[C@@H]1CCCO1` (relative stereo) [Example 28, 2-(((4aS,7aR)-4-((R*)-2-(4-Chloro-2-fluorophenyl)-2-methylbenzo[d][1,3]dioxol-4-yl)hexahydrofuro[3,4-b]pyrazin-1(2H)-yl)methyl)-4-methoxy-1-(((S)-tetrahydrofuran-2-yl)methyl)-1H-benzo[d]imidazole-6-carboxylic acid], the values for the EC50 (on human GLP-1R receptor; in test [1]) were 2 nM and 1.2 nM, respectively.
On the same counts, the results for `COc1cc(C(=O)O)cc2c1nc(CN1CCN(c3cccc4c3O[C@@](C)(c3ccc(Cl)cn3)O4)[C@@H]3COC[C@@H]31)n2C[C@@H]1CCO1` (single isomer, unassigned) [Example 1a, 2-(((4aR*,7aS*)-4-((R*)-2-(5-Chloropyridin-2-yl)-2-methylbenzo[d][1,3]dioxol-4-yl)hexahydrofuro[3,4-b]pyrazin-1(2H)-yl)methyl)-4-methoxy-1-(((S)-oxetan-2-yl)methyl)-1H-benzo[d]imidazole-6-carboxylic acid] are 140 nM and 210 nM.
As to `COc1cc(C(=O)O)cc2c1nc(CN1CCN(c3cccc4c3O[C@@](C)(c3ccc(Cl)cn3)O4)[C@@H]3COC[C@@H]31)n2C[C@@H]1CCCO1` (single isomer, unassigned) [Example 2b, 2-(((4aR*,7aS*)-4-((R*)-2-(5-Chloropyridin-2-yl)-2-methylbenzo[d][1,3]dioxol-4-yl)hexahydrofuro[3,4-b]pyrazin-1(2H)-yl)methyl)-4-methoxy-1-(((S)-tetrahydrofuran-2-yl)methyl)-1H-benzo[d]imidazole-6-carboxylic acid], the EC50 was found to be 110 nM on human GLP-1R receptor and 86 nM in test [1].
On the same counts, the results for `COc1cc(C(=O)O)cc2c1nc(CN1CCN(c3cccc4c3O[C@@](C)(c3ccc(Cl)cc3F)O4)[C@@H]3COC[C@@H]31)n2C[C@@H]1CCO1` (single isomer, unassigned) [Example 3a, 2-(((4aR*,7aS*)-4-((R*)-2-(4-Chloro-2-fluorophenyl)-2-methylbenzo[d][1,3]dioxol-4-yl)hexahydrofuro[3,4-b]pyrazin-1(2H)-yl)methyl)-4-methoxy-1-(((S)-oxetan-2-yl)methyl)-1H-benzo[d]imidazole-6-carboxylic acid] are 1.2 nM and 1.7 nM.
On the same counts, the results for `COc1cc(C(=O)O)cc2c1nc(CN1CCN(c3cccc4c3O[C@@](C)(c3ccc(Cl)cc3F)O4)[C@@H]3COC[C@@H]31)n2C[C@@H]1CCO1` (single isomer, unassigned) [Example 3b, 2-(((4aR*,7aS*)-4-((R*)-2-(4-Chloro-2-fluorophenyl)-2-methylbenzo[d][1,3]dioxol-4-yl)hexahydrofuro[3,4-b]pyrazin-1(2H)-yl)methyl)-4-methoxy-1-(((S)-oxetan-2-yl)methyl)-1H-benzo[d]imidazole-6-carboxylic acid] are 61 nM and 270 nM.
Consider `COc1cc(C(=O)O)cc2c1nc(CN1CCN(c3cccc4c3O[C@@](C)(c3ccc(Cl)cc3F)O4)[C@@H]3COC[C@@H]31)n2C[C@@H]1CCO1` (single isomer, unassigned) [Example 3c, 2-(((4aR*,7aS*)-4-((R*)-2-(4-Chloro-2-fluorophenyl)-2-methylbenzo[d][1,3]dioxol-4-yl)hexahydrofuro[3,4-b]pyrazin-1(2H)-yl)methyl)-4-methoxy-1-(((S)-oxetan-2-yl)methyl)-1H-benzo[d]imidazole-6-carboxylic acid], for which the EC50 at human GLP-1R receptor stood at 150 nM; in test [1], 130 nM.
Compound `C[C@]1(c2ccc(Cl)cc2F)Oc2cccc(N3CCN(Cc4nc5ccc(C(=O)O)cc5n4CCn4cccn4)[C@H]4COC[C@H]43)c2O1` (single isomer, unassigned) [Example 7b] gave a half-maximal effective concentration (EC50) on human GLP-1R receptor of 380 nM.

Values taken from patent publication US20250236627A1, “CERTAIN OCTAHYDROFURO[3,4- B]PYRAZINES AS GLP-1 RECEPTOR MODULATORS” (ASTRAZENECA AB, priority 2021, published 2025).
